Key:
Experiment in all cases: relative viability (nuclei count vs DMSO), 5 days (fraction); higher = more cells survive
[1] = compound: O[C@@H](COc1cccc2ncccc12)CN1CCN([C@@H]2c3ccccc3[C@@H]3[C@H](c4ccccc42)C3(F)F)CC1 [Zosuquidar] + CC(=O)Nc1cccc(-n2c(=O)n(C3CC3)c(=O)c3c(Nc4ccc(I)cc4F)n(C)c(=O)c(C)c32)c1 [Trametinib] (partner 0.02 µM)
How it was run: (§1)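 Lung cancer cell lines, seeded in 1536-well plates, were treated the following day by pin tool with a single drug or with five library-drug doses (not always all listed) in √10 steps on top of a fixed anchor-drug dose. Cells were fixed and nuclei stained in one step after 5 days, and nuclei were counted. Relative viability is the nuclei count for treated wells divided by that for vehicle wells, reported as medians of duplicate plates.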

[2] = compound: C1=CC(=CC=C1NC(=S)NNC2=C(C=C(C=C2[N+](=O)[O-])C(F)(F)F)[N+](=O)[O-])F [Kobe2602] + CS(=O)(=O)N1CCN(Cc2cc3nc(-c4cccc5[nH]ncc45)nc(N4CCOCC4)c3s2)CC1 [Pictilisib] (partner 1 µM)
How it was run: as §1

[3] = compound: O[C@@H](COc1cccc2ncccc12)CN1CCN([C@@H]2c3ccccc3[C@@H]3[C@H](c4ccccc42)C3(F)F)CC1 [Zosuquidar] + CC(=O)c1c(C)c2cnc(Nc3ccc(N4CCNCC4)cn3)nc2n(C2CCCC2)c1=O [Palbociclib] (partner 0.5 µM)
How it was run: as §1

[4] = compound: O[C@@H](COc1cccc2ncccc12)CN1CCN([C@@H]2c3ccccc3[C@@H]3[C@H](c4ccccc42)C3(F)F)CC1 [Zosuquidar] + NC(=O)Nc1cc(-c2cccc(F)c2)sc1C(=O)N[C@H]1CCCNC1 [AZD7762] (partner 0.2 µM)
How it was run: as §1

| Cell Line | relative viability ([1]; first compound 0.01 µM) | relative viability ([1]; first compound 0.03162 µM) | relative viability ([1]; first compound 0.1 µM) | relative viability ([1]; first compound 0.3162 µM) | relative viability ([1]; first compound 1 µM) | relative viability ([2]; first compound 0.2 µM) | relative viability ([2]; first compound 0.6325 µM) | relative viability ([2]; first compound 2 µM) | relative viability ([2]; first compound 6.325 µM) | relative viability ([2]; first compound 20 µM) | relative viability ([3]; first compound 0.01 µM) | relative viability ([3]; first compound 0.03162 µM) | relative viability ([3]; first compound 0.1 µM) | relative viability ([3]; first compound 0.3162 µM) | relative viability ([3]; first compound 1 µM) | relative viability ([4]; first compound 0.01 µM) | relative viability ([4]; first compound 0.03162 µM) | relative viability ([4]; first compound 0.1 µM) | relative viability ([4]; first compound 0.3162 µM) | relative viability ([4]; first compound 1 µM) |
| --- | --- | --- | --- | --- | --- | --- | --- | --- | --- | --- | --- | --- | --- | --- | --- | --- | --- | --- | --- | --- |
| NCI-H1355 | 0.461 | 0.416 | 0.435 | 0.557 | 0.401 | 0.358 | 0.526 | 0.451 | 0.429 | 0.42 | 0.417 | 0.397 | 0.404 | 0.308 | 0.412 | 0.777 | 0.778 | 0.733 | 0.797 | 0.86 |
| NCI-H1395 | 1.05 | 1.01 |  | 1.05 | 1.07 | 0.612 | 0.664 | 0.617 | 0.65 | 0.816 | 0.596 | 0.664 |  | 0.64 | 0.549 | 0.398 | 0.373 |  | 0.409 | 0.429 |
| NCI-H1437 | 0.508 | 0.587 | 0.507 | 0.762 | 0.533 | 0.412 | 0.501 | 0.471 | 0.424 | 0.363 | 0.3 | 0.333 | 0.348 | 0.272 | 0.32 | 1.19 | 1.16 | 1.14 | 1.03 | 1.19 |
| NCI-H1651 | 0.773 | 0.803 | 0.772 | 0.864 | 0.789 | 0.691 | 0.69 | 0.636 | 0.537 | 0.537 | 0.509 | 0.537 | 0.489 | 0.508 | 0.511 | 0.459 | 0.476 | 0.415 | 0.403 | 0.384 |
| NCI-H1666 | 0.833 | 1.03 | 0.859 | 0.954 | 0.811 | 0.345 | 0.5 |  | 0.276 | 0.471 | 0.56 | 0.715 | 0.668 | 0.757 | 0.648 | 0.852 | 0.979 | 0.752 | 0.826 | 0.862 |
| NCI-H1734 | 0.591 | 0.773 | 0.658 | 0.734 | 0.623 | 0.439 | 0.475 | 0.464 | 0.454 | 0.533 | 0.337 | 0.383 | 0.404 | 0.306 | 0.344 | 0.526 | 0.515 | 0.563 | 0.599 | 0.514 |
| NCI-H1755 | 0.762 | 0.75 | 0.755 | 0.819 | 0.75 | 0.445 | 0.476 | 0.421 | 0.439 | 0.435 | 0.47 | 0.461 | 0.464 | 0.441 | 0.454 | 0.399 | 0.461 | 0.398 | 0.497 | 0.436 |
| NCI-H1792 | 0.522 | 0.427 | 0.41 | 0.535 | 0.421 | 0.24 | 0.337 | 0.389 | 0.252 | 0.303 | 0.665 | 0.583 |  | 0.673 | 0.703 | 0.539 | 0.623 | 0.5 | 0.817 | 1.19 |
| NCI-H1793 | 0.423 |  |  | 0.445 | 0.434 | 0.387 | 0.381 | 0.32 | 0.346 | 0.339 | 0.271 |  |  | 0.333 | 0.306 | 0.519 |  |  | 0.516 | 0.692 |
| NCI-H1915 | 0.296 | 0.284 | 0.297 | 0.321 | 0.301 | 0.959 | 0.993 | 0.994 | 0.989 | 1.02 | 0.501 | 0.542 | 0.501 | 0.635 | 0.507 | 0.714 | 0.699 | 0.613 | 0.816 | 0.756 |
| NCI-H1944 | 0.418 | 0.393 | 0.389 | 0.429 | 0.388 | 0.344 | 0.381 | 0.353 | 0.349 | 0.374 | 0.343 | 0.358 | 0.342 | 0.391 | 0.319 | 0.496 | 0.565 | 0.479 | 0.62 | 0.511 |
| NCI-H1975 | 0.431 | 0.351 | 0.299 | 0.528 | 0.337 | 0.279 | 0.276 | 0.277 | 0.256 | 0.299 | 0.587 | 0.475 | 0.582 | 0.714 | 0.531 | 0.675 | 0.744 | 0.661 | 0.788 | 0.791 |
| NCI-H1993 | 0.483 | 0.5 |  | 0.591 | 0.508 | 0.649 | 0.807 | 0.861 | 0.893 | 0.785 | 0.653 | 0.603 |  | 0.617 | 0.615 | 0.692 | 0.781 |  | 0.858 | 0.908 |
| NCI-H2085 | 0.513 | 0.481 |  | 0.617 | 0.548 | 0.484 | 0.448 | 0.483 | 0.466 | 0.489 | 0.5 | 0.469 |  | 0.508 | 0.484 | 0.983 | 1.04 |  | 1.03 | 0.99 |
| NCI-H2087 | 0.188 | 0.192 | 0.167 | 0.224 | 0.196 | 0.86 | 0.832 | 0.78 | 0.841 | 0.95 | 0.19 | 0.25 | 0.243 | 0.205 | 0.249 | 1.22 | 1.39 | 1.32 | 1.41 | 1.26 |
| NCI-H2126 | 0.505 | 0.577 | 0.536 | 0.573 | 0.599 | 0.508 | 0.508 | 0.485 | 0.475 | 0.492 | 0.349 | 0.339 | 0.351 | 0.341 | 0.351 | 1.03 | 1 | 0.911 | 1.04 | 1.01 |
| NCI-H2170 | 0.85 | 0.929 | 0.868 | 0.952 | 0.869 | 0.325 | 0.327 | 0.329 | 0.324 | 0.344 | 0.364 | 0.42 | 0.397 | 0.426 | 0.379 | 0.866 | 0.916 | 0.776 | 0.898 | 0.858 |
| NCI-H2347 | 0.268 | 0.268 | 0.276 | 0.311 | 0.297 | 0.745 | 0.843 | 0.716 | 0.558 | 0.611 | 0.403 | 0.466 | 0.432 | 0.413 | 0.43 | 0.701 | 0.811 | 0.564 | 0.808 | 0.764 |
| NCI-H2405 | 0.64 | 0.621 | 0.617 | 0.754 | 0.617 | 0.459 | 0.41 | 0.413 | 0.425 | 0.536 | 0.565 | 0.528 | 0.555 | 0.539 | 0.489 | 0.691 | 0.714 | 0.766 | 0.739 | 0.539 |
| NCI-H3122 | 0.232 | 0.258 | 0.238 | 0.222 | 0.211 | 0.575 | 0.599 | 0.522 | 0.583 | 0.702 | 0.177 | 0.195 | 0.18 | 0.213 | 0.197 | 0.812 | 0.916 | 0.844 | 1.01 | 1 |
| PC-3 [JPC-3] | 0.78 | 0.628 | 0.667 | 0.692 | 0.699 | 0.873 | 0.74 | 0.795 | 0.781 | 0.671 | 0.554 | 0.52 | 0.542 | 0.507 | 0.473 | 0.78 | 0.9 | 0.648 | 0.836 | 0.524 |
| PC-14 | 0.826 | 0.753 | 0.862 | 0.83 | 0.706 | 0.63 | 0.674 | 0.592 | 0.637 | 0.745 | 0.506 | 0.475 | 0.635 | 0.509 | 0.52 | 0.3 | 0.372 | 0.314 | 0.363 | 0.344 |
| RERF-LC-KJ | 0.837 | 0.897 | 0.944 | 0.857 | 0.919 | 0.589 | 0.643 | 0.512 | 0.506 | 0.493 | 1.1 | 1.07 | 1.06 | 1.1 | 1.14 | 1.02 | 0.882 | 0.895 | 1.05 | 0.811 |

— the supplement of paper PMC10307832
